Results published in US20070179110A1, “EXPRESSION OF IMMUNOGENIC SUBSTANCES” (Mayo Foundation for Medical Education and Research, priority 1997, published 2007).

Columns and labels:
chTCR gene expression [1] = assay: Regulation of surface chTCR expression by tetracyclines in JLAV12S (pLAV12-transfected Jurkat) cells, FACS; type: cell-based, human; conditions: for surface chTCRs down-regulated: 1 μg/ml; for surface chTCRs down-regulated / concentration for maximal repression: 48 hours
Experimental: (§1) The Jurkat T cell line (clone E6-l) was maintained in RPMI 1640 supplemented with 10% foetal calf serum (FCS), 2 mM L-glutamine, 100 U/ml penicillin, 100 μg/ml streptomycin and 25 mM HEPES buffer (all from GIBCO-BRL, Gaithersburg, Md.), referred to as complete medium (CM). To generate stable cell lines Jurkat cells were transfected with linearized plasmid DNA (10 μg) by electroporation, at […] and 960 μF, as described previously (13). Transfectants were selected in CM supplemented with 0.4 mg/ml of hygromycin B (Calbiochem, San Diego, Calif.). Stable cell lines were established after 3-4 weeks and analyzed by FACS for expression of the chTCR. To select a population of chTCR ζ expressing cells, stable Jurkat cells transfected with the linearized pLAV12 or pCEP4.aNIP.TCR ζ derived plasmid fragments were FACS sorted (see below). The resultant populations were cloned twice by limiting dilution and screened for protein expression by flow cytometry.
(§2) Expression of cell surface proteins was performed by standard direct immunofluorescence as described (14) using saturating amounts of FITC-conjugated antibodies. Dead cells were excluded from analysis using a combination of propidium iodide and forward light scatter. Appropriate FITC isotype-matched irrelevant Abs were used in all experiments. The samples were analysed with a FACScan® (Becton Dickinson, Mountain View, Calif.). A minimum of 20,000 cells was analysed for each sample. Subsequent re-analysis of data was performed using the CELLQuest software (version 1.2) (Becton Dickinson). Additionally, cells stained with FITC-conjugated goat antisera to mouse λ light chain were sorted under sterile conditions on a cell sorter (FACScalibur, Becton Dickinson).
To study the time-course of inactivation of gene expression, JLAV12S cells were analysed at different times after addition of the antibiotics at 1 μg/ml (FIG. 2B).
(§3) A dose-response curve of gene repression was determined using different concentrations of Tet or Dox. After 48 hours of treatment, the cells were harvested and the expression of the chTCR was studied by FACS analysis.
(§4) Stably transfected uncloned (JLAV12S, left hand column) and cloned (1F5, middle column; and 2E11, right hand column) Jurkat cell populations were cultured for 48 hours in the presence of different concentrations (0 ng/ml top row, 0.1 ng/ml second row, 1 ng/ml third row, and 10 ng/ml bottom row) of Tet (broken line) or Dox (solid line) and the surface expression of scFv-TCR ζ molecules was examined. Negative controls (FITC-conjugated goat antisera to mouse IgG) are overlaid (filled curve). The fluorescence channel number is plotted along the x axis, and the y axis represents the relative cell number.

JN3S cells = assay: IL-2 production of JN3S cells stimulated with iNIP10-BSA; type: cell-based, human; conditions: doxycycline at a concentration of less than 1 μg/ml
Experimental: (§5) Subsequently the cells were washed, counted and stimulated (10^5/well) in triplicate with plastic-immobilised NIP10-BSA conjugates (iNIP10-BSA) or plastic immobilised anti-CD3E mAb (ianti-CD3) in fresh CM alone or in the presence of the drugs (12). The plates were incubated at 37° C. in 5% CO2. After 20 hours supernatants were harvested and assayed for IL-2 activity using an ELISA kit (Genzyme Diagnostics, Cambridge, Mass.).
The inventors next determined whether tetracycline-mediated suppression of the chTCR could induce a reversible state of antigen unresponsiveness in the transfected Jurkat cells. JLAV12S and JN3S cells were preincubated for 48 hours in increasing concentrations of Dox and Tet and then stimulated with immobilized NIP-BSA, following which their IL-2 production was measured.
FIGS. 5A and 5B are bar charts showing IL-2 production (in pg/ml) by transfected JLAV12S (5A) or JN3S (5B) cells stimulated with iNIP10-BSA in the absence or presence of Tet or Dox. Cells were preincubated for a 48 hours period in the absence or presence of the drugs (at the indicated concentration in ng/ml), washed and stimulated (10^5/well) with plastic immobilised NIP10-BSA conjugates (50 μg/ml) in fresh CM alone (solid bar) or in the presence of Tet (shaded bars) or Dox (open bars) at the indicated concentrations. One of two similar experiments is shown.

chTCR gene expression [2] = assay: Regulation of surface chTCR expression in cloned pLAV12 transfectants (1E5/1F5 and 2E11), FACS; type: cell-based, human
Experimental: as §1, §2
The selected population of pLAV12 transfectants (JLAV12S) was then cloned by limiting dilution and two subclones expressing the chTCR at low (2E11) and intermediate (IF5) levels (FIG. 3) were selected for further study.
as §3, §4

Jurkat cells = assay: Anti-CD3ε induced IL-2 secretion of Jurkat cells (IL-2 release assay); type: cell-based; conditions: Homo sapiens, 1 μg/ml, not shown
Experimental: as §5

JLAV12S and JN3S cells = conditions: 1 μg/ml, 48 hours; data not shown

Q: How did the “surface chTCRs down-regulated” value (chTCR gene expression [1]; JLAV12S cells) turn out when `CN(C)[C@@H]1C(O)=C(C(N)=O)C(=O)[C@@]2(O)C(O)=C3C(=O)c4c(O)cccc4[C@@](C)(O)[C@H]3C[C@@H]12` [tetracycline] was run?
A: The value was 90%.

Q: What about the “concentration for maximal repression” value (chTCR gene expression [1]; all the analysed cell lines) of the same molecule?
A: The value was “greater than or equal to 10 ng/ml”.

Q: What about the “concentration of maximum repression” value (chTCR gene expression [1]; in our system) of the same molecule?
A: The value was 10 ng/mL.

Q: And the “effect on IL-2 production upon stimulation with iNIP10-BSA conjugates” value (JN3S cells)?
A: The value was “no inhibitory effect”.

Q: And the “level of chTCR as % of its maximal expression” value (chTCR gene expression [2]; 1E5 clone)?
A: The value was “about 10%”.

Q: And the “level of chTCR as % of its maximal expression” value (chTCR gene expression [2]; 2E11 clone)?
A: The value was roughly 20%.

Q: What does the source list for `C[C@H]1c2cccc(O)c2C(=O)C2=C(O)[C@]3(O)C(=O)C(C(N)=O)=C(O)[C@@H](N(C)C)[C@@H]3[C@@H](O)[C@@H]21` [doxycycline]?
A: surface chTCRs down-regulated (chTCR gene expression [1]; JLAV12S cells): 90%; concentration for maximal repression (chTCR gene expression [1]; JLAV12S cells): greater than or equal to 1 ng/ml; effect on IL-2 production upon stimulation with iNIP10-BSA conjugates (JN3S cells): no inhibitory effect; inhibition at 1 µg/mL (Jurkat cells): 25%; changes in cell viability (JLAV12S and JN3S cells): No changes; level of chTCR as % of its maximal expression (chTCR gene expression [2]; 1E5 clone): about 10%; level of chTCR as % of its maximal expression (chTCR gene expression [2]; 2E11 clone): ~20%; concentration at which expression of chTCRs was maximally repressed (chTCR gene expression [2]; clonal populations 1E5 and 2E11, 48 hours): 100 pg/mL
